{"source": "ChEMBL document CHEMBL4033624", "about": "“Synthesis and evaluation of adenosine containing 3-arylfuran-2(5H)-ones as tyrosyl-tRNA synthetase inhibitors” (Eur J Med Chem, 2017)", "key": {"Staphylococcus aureus": {"tested_on": "Staphylococcus aureus", "assay": "Antibacterial activity against Staphylococcus aureus ATCC 6538 after 4 to 5 hrs by MTT assay", "format": "functional"}, "Escherichia coli": {"tested_on": "Escherichia coli", "assay": "Antibacterial activity against Escherichia coli ATCC 8739 after 4 to 5 hrs by MTT assay", "format": "functional"}, "Pseudomonas aeruginosa": {"tested_on": "Pseudomonas aeruginosa", "assay": "Antibacterial activity against Pseudomonas aeruginosa ATCC 9027 after 4 to 5 hrs by MTT assay", "format": "functional"}, "[1]": {"assay": "Inhibition of TyrRS (unknown origin) expressed in Escherichia coli using L-[ring-3,5-3H] tyrosine as substrate preincubated for 10 mins followed by substrate addition measured by liquid scintillation counting method", "design": "species or system Bacteria"}}}
{"smiles": "CC1(C)O[C@@H]2[C@H](O1)[C@@H](CNC(=O)COC1=C(c3ccc(Br)cc3)C(=O)OC1)O[C@H]2n1cnc2c(N)ncnc21", "values": [{"measurement": "MIC50", "setting": "Staphylococcus aureus", "value": "> 100", "unit": "µg/mL"}, {"measurement": "MIC50", "setting": "Escherichia coli", "value": 98.6, "unit": "µg/mL"}, {"measurement": "MIC50", "setting": "Pseudomonas aeruginosa", "value": "> 100", "unit": "µg/mL"}, {"measurement": "IC50", "setting": "[1]", "value": 92.6, "unit": "µM"}]}
{"smiles": "Nc1ncnc2c1ncn2[C@@H]1O[C@H](CNC(=O)COC2=C(c3ccc(Br)cc3)C(=O)OC2)[C@@H](O)[C@H]1O", "values": [{"measurement": "MIC50", "setting": "Staphylococcus aureus", "value": 75.1, "unit": "µg/mL"}, {"measurement": "MIC50", "setting": "Escherichia coli", "value": 46.6, "unit": "µg/mL"}, {"measurement": "MIC50", "setting": "Pseudomonas aeruginosa", "value": 40.5, "unit": "µg/mL"}, {"measurement": "IC50", "setting": "[1]", "value": 29.1, "unit": "µM"}]}
{"smiles": "CCOc1ccc(C2=C(OCC(=O)NC[C@H]3O[C@@H](n4cnc5c(N)ncnc54)[C@@H]4OC(C)(C)O[C@@H]43)COC2=O)cc1OCC", "values": [{"measurement": "MIC50", "setting": "Staphylococcus aureus", "value": "> 100", "unit": "µg/mL"}, {"measurement": "MIC50", "setting": "Escherichia coli", "value": "> 100", "unit": "µg/mL"}, {"measurement": "MIC50", "setting": "Pseudomonas aeruginosa", "value": "> 100", "unit": "µg/mL"}, {"measurement": "IC50", "setting": "[1]", "value": "> 100", "unit": "µM"}]}
{"smiles": "COc1ccc(C2=C(OCC(=O)NC[C@H]3O[C@@H](n4cnc5c(N)ncnc54)[C@H](O)[C@@H]3O)COC2=O)cc1OC", "values": [{"measurement": "MIC50", "setting": "Staphylococcus aureus", "value": "> 100", "unit": "µg/mL"}, {"measurement": "MIC50", "setting": "Escherichia coli", "value": "> 100", "unit": "µg/mL"}, {"measurement": "MIC50", "setting": "Pseudomonas aeruginosa", "value": "> 100", "unit": "µg/mL"}, {"measurement": "IC50", "setting": "[1]", "value": "> 100", "unit": "µM"}]}
{"smiles": "Nc1ncnc2c1ncn2[C@@H]1O[C@H](CNC(=O)COC2=C(c3ccc(Cl)cc3Cl)C(=O)OC2)[C@@H](O)[C@H]1O", "values": [{"measurement": "MIC50", "setting": "Staphylococcus aureus", "value": 55.4, "unit": "µg/mL"}, {"measurement": "MIC50", "setting": "Escherichia coli", "value": 29.4, "unit": "µg/mL"}, {"measurement": "MIC50", "setting": "Pseudomonas aeruginosa", "value": 33.6, "unit": "µg/mL"}, {"measurement": "IC50", "setting": "[1]", "value": 26.1, "unit": "µM"}]}
{"smiles": "CC1(C)O[C@@H]2[C@H](O1)[C@@H](CNC(=O)COC1=C(c3ccc(Cl)cc3Cl)C(=O)OC1)O[C@H]2n1cnc2c(N)ncnc21", "values": [{"measurement": "MIC50", "setting": "Staphylococcus aureus", "value": "> 100", "unit": "µg/mL"}, {"measurement": "MIC50", "setting": "Escherichia coli", "value": "> 100", "unit": "µg/mL"}, {"measurement": "MIC50", "setting": "Pseudomonas aeruginosa", "value": 90.9, "unit": "µg/mL"}, {"measurement": "IC50", "setting": "[1]", "value": 83.8, "unit": "µM"}]}
{"smiles": "CC1(C)O[C@@H]2[C@H](O1)[C@@H](CNC(=O)COC1=C(c3ccc(Cl)cc3)C(=O)OC1)O[C@H]2n1cnc2c(N)ncnc21", "values": [{"measurement": "MIC50", "setting": "Staphylococcus aureus", "value": 39.6, "unit": "µg/mL"}, {"measurement": "MIC50", "setting": "Escherichia coli", "value": 20.3, "unit": "µg/mL"}, {"measurement": "MIC50", "setting": "Pseudomonas aeruginosa", "value": 21.4, "unit": "µg/mL"}, {"measurement": "IC50", "setting": "[1]", "value": 22.7, "unit": "µM"}]}
{"smiles": "CC1(C)O[C@@H]2[C@H](O1)[C@@H](CNC(=O)COC1=C(c3ccccc3Cl)C(=O)OC1)O[C@H]2n1cnc2c(N)ncnc21", "values": [{"measurement": "MIC50", "setting": "Staphylococcus aureus", "value": 30.3, "unit": "µg/mL"}, {"measurement": "MIC50", "setting": "Escherichia coli", "value": 15.8, "unit": "µg/mL"}, {"measurement": "MIC50", "setting": "Pseudomonas aeruginosa", "value": 25.6, "unit": "µg/mL"}, {"measurement": "IC50", "setting": "[1]", "value": 24.3, "unit": "µM"}]}
{"smiles": "Nc1ncnc2c1ncn2[C@@H]1O[C@H](CNC(=O)c2cccc(Br)c2)[C@@H](O)[C@H]1O", "values": [{"measurement": "MIC50", "setting": "Staphylococcus aureus", "value": "> 100", "unit": "µg/mL"}, {"measurement": "MIC50", "setting": "Escherichia coli", "value": "> 100", "unit": "µg/mL"}, {"measurement": "MIC50", "setting": "Pseudomonas aeruginosa", "value": "> 100", "unit": "µg/mL"}, {"measurement": "IC50", "setting": "[1]", "value": 94.5, "unit": "µM"}]}
{"smiles": "COc1ccc(C2=C(OCC(=O)NC[C@H]3O[C@@H](n4cnc5c(N)ncnc54)[C@@H]4OC(C)(C)O[C@@H]43)COC2=O)cc1OC", "values": [{"measurement": "MIC50", "setting": "Staphylococcus aureus", "value": "> 100", "unit": "µg/mL"}, {"measurement": "MIC50", "setting": "Escherichia coli", "value": "> 100", "unit": "µg/mL"}, {"measurement": "MIC50", "setting": "Pseudomonas aeruginosa", "value": "> 100", "unit": "µg/mL"}, {"measurement": "IC50", "setting": "[1]", "value": "> 100", "unit": "µM"}]}
{"smiles": "CC1(C)O[C@@H]2[C@H](O1)[C@@H](CNC(=O)c1cccc(Br)c1)O[C@H]2n1cnc2c(N)ncnc21", "values": [{"measurement": "MIC50", "setting": "Staphylococcus aureus", "value": "> 100", "unit": "µg/mL"}, {"measurement": "MIC50", "setting": "Escherichia coli", "value": "> 100", "unit": "µg/mL"}, {"measurement": "MIC50", "setting": "Pseudomonas aeruginosa", "value": "> 100", "unit": "µg/mL"}, {"measurement": "IC50", "setting": "[1]", "value": "> 100", "unit": "µM"}]}
{"smiles": "CC1(C)O[C@@H]2[C@H](O1)[C@@H](CNC(=O)COC1=C(c3ccc(Cl)c(Cl)c3)C(=O)OC1)O[C@H]2n1cnc2c(N)ncnc21", "values": [{"measurement": "MIC50", "setting": "Staphylococcus aureus", "value": 90.7, "unit": "µg/mL"}, {"measurement": "MIC50", "setting": "Escherichia coli", "value": 60.2, "unit": "µg/mL"}, {"measurement": "MIC50", "setting": "Pseudomonas aeruginosa", "value": 63.7, "unit": "µg/mL"}, {"measurement": "IC50", "setting": "[1]", "value": 33.4, "unit": "µM"}]}
{"smiles": "CCOc1ccc(C2=C(OCC(=O)NC[C@H]3O[C@@H](n4cnc5c(N)ncnc54)[C@H](O)[C@@H]3O)COC2=O)cc1OCC", "values": [{"measurement": "MIC50", "setting": "Staphylococcus aureus", "value": "> 100", "unit": "µg/mL"}, {"measurement": "MIC50", "setting": "Escherichia coli", "value": "> 100", "unit": "µg/mL"}, {"measurement": "MIC50", "setting": "Pseudomonas aeruginosa", "value": "> 100", "unit": "µg/mL"}, {"measurement": "IC50", "setting": "[1]", "value": "> 100", "unit": "µM"}]}
{"smiles": "CC1(C)O[C@@H]2[C@H](O1)[C@@H](CNC(=O)COC1=C(c3ccc(F)cc3)C(=O)OC1)O[C@H]2n1cnc2c(N)ncnc21", "values": [{"measurement": "MIC50", "setting": "Staphylococcus aureus", "value": "> 100", "unit": "µg/mL"}, {"measurement": "MIC50", "setting": "Escherichia coli", "value": "> 100", "unit": "µg/mL"}, {"measurement": "MIC50", "setting": "Pseudomonas aeruginosa", "value": "> 100", "unit": "µg/mL"}, {"measurement": "IC50", "setting": "[1]", "value": "> 100", "unit": "µM"}]}
{"smiles": "CC1(C)O[C@@H]2[C@H](O1)[C@@H](CNC(=O)COC1=C(c3cccc(F)c3)C(=O)OC1)O[C@H]2n1cnc2c(N)ncnc21", "values": [{"measurement": "MIC50", "setting": "Staphylococcus aureus", "value": "> 100", "unit": "µg/mL"}, {"measurement": "MIC50", "setting": "Escherichia coli", "value": 83.6, "unit": "µg/mL"}, {"measurement": "MIC50", "setting": "Pseudomonas aeruginosa", "value": 82.8, "unit": "µg/mL"}, {"measurement": "IC50", "setting": "[1]", "value": 56, "unit": "µM"}]}
{"smiles": "O=C(O)c1cn(C2CC2)c2cc(N3CCNCC3)c(F)cc2c1=O", "note": "[CIPROFLOXACIN]", "values": [{"measurement": "MIC50", "setting": "Escherichia coli", "value": 0.1, "unit": "µg/mL"}, {"measurement": "MIC50", "setting": "Pseudomonas aeruginosa", "value": 0.64, "unit": "µg/mL"}]}
{"smiles": "Nc1ncnc2c1ncn2[C@@H]1O[C@H](CNC(=O)COC2=C(c3ccc(F)cc3)C(=O)OC2)[C@@H](O)[C@H]1O", "values": [{"measurement": "MIC50", "setting": "Staphylococcus aureus", "value": 72.7, "unit": "µg/mL"}, {"measurement": "MIC50", "setting": "Escherichia coli", "value": 39.2, "unit": "µg/mL"}, {"measurement": "MIC50", "setting": "Pseudomonas aeruginosa", "value": 47.4, "unit": "µg/mL"}, {"measurement": "IC50", "setting": "[1]", "value": 31.7, "unit": "µM"}]}
{"smiles": "CC1(C)S[C@@H]2[C@H](NC(=O)Cc3ccccc3)C(=O)N2[C@H]1C(=O)[O-].[Na+]", "note": "[PENICILLIN G SODIUM]", "values": [{"measurement": "MIC50", "setting": "Staphylococcus aureus", "value": 0.57, "unit": "µg/mL"}]}
